According to patent US20240100044A1, “HYDROGEL COMPOSITION AND USES THEREOF IN THE PREVENTION AND/OR TREATMENT OF SKIN DAMAGE CAUSED BY RADIATION” (TARIAN PHARMA, priority 2021, published 2024):
Read-outs that look alike come from different tables or passages of the source. Marks after values point to notes of the source that are not given here.

Columns and labels:
[1] = tested on: alpha2-adrenergic receptors; settings: cited from earlier work
radiation dermatitis = settings: topical, applied up to 20 minutes before radiotherapy; cited from earlier work
[2] = Protocol: (§1) Saturated solutions were prepared by adding an excess of drug substance to various solvents and storing the samples in sealed containers for 24 hours at room temperature with continuous stirring.
The majority of the samples were stirred using a magnetic stirrer; however, in the case of viscous samples (such as pure glycerine), the samples were stirred using a rotary mixer. The speed of the rotary mixer was adjusted to ensure proper mixing of the sample, this generally involving slower rotation speeds.
(§2) After the equilibration period, samples were centrifuged or filtered and the brimonidine tartrate was quantified using the Thermo Scientific Dionex U3000 UPLC-UV system. The chromatographic conditions are described below: • Column: Sunfire C18 150 mm×4.6 mm, 3.5 μm • Temperature of column: 40° C. • Volume injected: […] • Flow: 0.8 ml/minute • UV detection: 246 nm

[3] = remark: listed apart in the source
Protocol: as §1, §2
Saturated solutions were prepared, incubated and measured as described in Example 1.

[4] = value as per literature (ALPHAGAN Product Monograph), conditions not specified, cited from earlier work

Question: For `Brc1c(NC2=NCCN2)ccc2nccnc12` [Brimonidine], which “selectivity for alpha2-adrenergic receptors over alpha1-adrenergic receptors” value [1] is on record?
Answer: Its value is 1,000 times.

Question: With `CNC[C@H](O)c1ccc(O)c(O)c1` [epinephrine] as the molecule, how does the “patients showing a significant benefit” value (radiation dermatitis) read?
Answer: Its value is 50%.

Question: What does the source list for brimonidine tartrate?
Answer: Max solubility ([2]; in ARLASOLVE DMI, 24 hours, room temperature): 0.01 % (w/w); Max solubility ([2]; in DMSO, visual solubility, UPLC-UV not performed): >8.5*** % (w/w); Max solubility ([2]; in GLUCAM E10, 24 hours, room temperature): 0.72* % (w/w); Max solubility ([2]; in GLUCAM E20, 24 hours, room temperature): 0.88* % (w/w); Max solubility ([2]; in Glycerine (GLY, 20 ml scintillation flask)): 1.61 % (w/w); Max solubility ([2]; in Hexylene Glycol, 24 hours, room temperature): 0.01 % (w/w); Max solubility ([2]; in Na Pyrrolidone Carboxylate (AJIDEW L50), 24 hours, room temperature): 0.06 % (w/w); Max solubility ([2]; in PEG-400, 24 hours, room temperature): 0.10 % (w/w); Max solubility ([2]; in Propylene Carbonate, 24 hours, room temperature): 0.01** % (w/w); Max solubility ([2]; in Propylene glycol, measured value): 0.56 % (w/w); Max solubility ([2]; in TRANSCUTOL, 24 hours, room temperature): 0.05 % (w/w); Max solubility ([2]; in WATER, measured value): 6.40 % (w/w); active agent solubilised by non-volatile mixture compared to the aqueous mixture ([3]; PG/PEG-400/GLY/PVP (20:10:5:1) vs PG/PEG-400/GLY/PVP/water (20:10:5:1:40)): approximately 22%; saturation in the aqueous solvent phase of the primary formulation ([3]; concentration of 1% brimonidine tartrate): around 30%; saturation in the aqueous solvent phase of the primary formulation ([3]; concentration of 1.5% brimonidine tartrate): ~50%; Max solubility ([3]; in PG/PEG-400 (20:10)): 0.45 % (w/w); Max solubility ([3]; in PG/PEG-400/GLY (20:10:5)): 0.66 % (w/w); Max solubility ([3]; in PG/PEG-400/GLY/PVP (20:10:5:1)): 0.72 % (w/w); Max solubility ([3]; in PG/PEG-400/GLY/PVP/Water (20:10:5:1:40)): 3.3 % (w/w); Max solubility ([3]; in PG/PEG-400/PVP (20:10:1)): 0.45 % (w/w); Max solubility ([4]; in Propylene glycol): ~0.1**** % (w/w); Max solubility ([4]; in WATER): 3.4**** % (w/w)
